Reference: article PMC3549253, “Effect of repetitive lysine–tryptophan motifs on the bactericidal activity of antimicrobial peptides” (Amino Acids, 2012)
Like-named read-outs stand apart in the source and are kept apart here.

What was measured:
S. aureus CCARM 3108 = assay: microbe, parasite or virus in culture; format: cell-based, Staphylococcus aureus; conditions: drug-resistant strain, 2 × 10^5 CFU/ml, 24 h at 37° C, average of 3–4 independent experiments
Description: (§1) Escherichia coli (KCTC 1682), Salmonella typhimurium (KCTC 1926), Pseudomonas aeruginosa (KCTC 1637), Staphylococcus aureus (KCTC 1621), Bacillus subtilis (KCTC 1918), and Listeria monocytogenes (KCTC 3710) were obtained from the Korean Collection for Type Cultures (KCTC). Drug-resistant E. coli strains (CCARM 1229 and CCARM 1238), S. typhimurium strains (CCARM 8007, CCARM 8009, and CCARM 8013), and S. aureus strains (CCARM 3089, CCARM 3090, CCARM 3108, CCARM 3114, and CCARM 3126) were from the Culture Collection of Antibiotic-Resistant Microbes (CCARM) at Seoul Women’s University, Korea.
(§2) The antibacterial activities of the peptides against Gram-negative, Gram-positive and antibiotic-resistant bacterial strains were evaluated using the microbroth dilution method (Park et al. [2003]). Aliquots of culture medium containing bacterial suspensions in mid-logarithmic phase at a concentration of 2 × 10^5 colony forming units (CFU)/ml were added to each well of a multiwell plate containing peptide solution serially diluted 2× in 10 mM sodium phosphate buffer (pH 7.2) or phosphate-buffered saline (PBS, 1.5 mM KH2PO4, 2.7 mM KCl, 8.1 mM Na2HPO4, 150 mM NaCl, pH 7.2). Growth inhibition was evaluated by measuring the absorbance at 620 nm using a Versa-Max microplate Elisa Reader (Molecular Devices Co., Sunnyvale, CA, USA) after 24 h of incubation at 37° C. […] All MIC measurements were the average of 3–4 independent experiments.

S. aureus CCARM 3089 = assay: microbe, parasite or virus in culture; format: cell-based, Staphylococcus aureus; conditions: drug-resistant strain, 2 × 10^5 CFU/ml, 24 h at 37° C, average of 3–4 independent experiments
Description: as §1, §2

S. aureus CCARM 3090 = assay: microbe, parasite or virus in culture; format: cell-based, Staphylococcus aureus; conditions: drug-resistant strain, 2 × 10^5 CFU/ml, 24 h at 37° C, average of 3–4 independent experiments
Description: as §1, §2

S. aureus CCARM 3114 = assay: microbe, parasite or virus in culture; format: cell-based, Staphylococcus aureus; conditions: drug-resistant strain, 2 × 10^5 CFU/ml, 24 h at 37° C, average of 3–4 independent experiments
Description: as §1, §2

S. aureus CCARM 3126 = assay: microbe, parasite or virus in culture; conditions: drug-resistant strain, 2 × 10^5 CFU/ml, 24 h at 37° C, average of 3–4 independent experiments
Description: as §1
(§3) The antibacterial activities of the peptides against Gram-negative, Gram-positive and antibiotic-resistant bacterial strains were evaluated using the microbroth dilution method (Park et al. [2003]). Aliquots of culture medium containing bacterial suspensions in mid-logarithmic phase at a concentration of 2 × 10^5 colony forming units (CFU)/ml were added to each well of a multiwell plate containing peptide solution serially diluted 2× in 10 mM sodium phosphate buffer (pH 7.2) or phosphate-buffered saline (PBS, 1.5 mM KH2PO4, 2.7 mM KCl, 8.1 mM Na2HPO4, 150 mM NaCl, pH 7.2). Growth inhibition was evaluated by measuring the absorbance at 620 nm using a Versa-Max microplate Elisa Reader (Molecular Devices Co., Sunnyvale, CA, USA) after 24 h of incubation at 37° C.

all 16 microbial strains = assay: Mean MIC over all strains and therapeutic index; format: cell-based; conditions: MIC values in PBS from all 16 microbial strains; 400 μM used when no activity at 200 μM
Procedure: as §3

E. coli CCARM 1238 = assay: microbe, parasite or virus in culture; format: cell-based, Escherichia coli; conditions: drug-resistant strain, 2 × 10^5 CFU/ml, 24 h at 37° C, average of 3–4 independent experiments
Description: as §1, §2

[1] = system: S. typhimurium CCARM 8009; assay: microbe, parasite or virus in culture; format: cell-based, Salmonella typhimurium; conditions: drug-resistant strain, 2 × 10^5 CFU/ml, 24 h at 37° C, average of 3–4 independent experiments, read-out: MIC
Description: as §1, §2

[2] = system: S. typhimurium CCARM 8013; assay: microbe, parasite or virus in culture; format: cell-based, Salmonella typhimurium; conditions: drug-resistant strain, 2 × 10^5 CFU/ml, 24 h at 37° C, average of 3–4 independent experiments, read-out: MIC
Description: as §1, §2

[3] = system: S. typhimurium CCARM 8007; assay: microbe, parasite or virus in culture; format: cell-based, Salmonella typhimurium; conditions: drug-resistant strain, 2 × 10^5 CFU/ml, 24 h at 37° C, average of 3–4 independent experiments, read-out: MIC
Description: as §1, §2

[4] = 10 mM sodium phosphate buffer, pH 7.2
[5] = PBS, pH 7.2 (number in parentheses)

CC[C@H](C)[C@H](NC(=O)CN)C(=O)NCC(=O)N[C@@H](C)C(=O)N[C@H](C(=O)N[C@@H](CC(C)C)C(=O)N[C@@H](CCCCN)C(=O)N[C@H](C(=O)N[C@@H](CC(C)C)C(=O)N[C@H](C(=O)N[C@H](C(=O)NCC(=O)N[C@@H](CC(C)C)C(=O)N1CCC[C@H]1C(=O)N[C@@H](C)C(=O)N[C@@H](CC(C)C)C(=O)N[C@H](C(=O)N[C@@H](CO)C(=O)N[C@@H](Cc1c[nH]c2ccccc12)C(=O)N[C@H](C(=O)N[C@@H](CCCCN)C(=O)N[C@@H](CCCNC(=N)N)C(=O)N[C@@H](CCCCN)C(=O)N[C@@H](CCCNC(=N)N)C(=O)N[C@@H](CCC(N)=O)C(=O)N[C@@H](CCC(N)=O)C(N)=O)[C@@H](C)CC)[C@@H](C)CC)[C@@H](C)O)[C@@H](C)O)C(C)C)C(C)C [Melittin, reference compound]
3.6 µM: GM (geometric mean of MIC values) (all 16 microbial strains)
3.12 µM: MIC [2, 4]
3.12 (3.12) μM: MIC (S. aureus CCARM 3090; [4]) | MIC (S. aureus CCARM 3090; [5]) | MIC (S. aureus CCARM 3114; [4]) | MIC (S. aureus CCARM 3114; [5])
6.25 µM: MIC [1, 4] | MIC [2, 5] | MIC [3, 4]
1.56 (1.56) μM: MIC (S. aureus CCARM 3108; [4]) | MIC (S. aureus CCARM 3108; [5]) | MIC (S. aureus CCARM 3089; [4]) | MIC (S. aureus CCARM 3089; [5]) | MIC (S. aureus CCARM 3126; [4]) | MIC (S. aureus CCARM 3126; [5]) | MIC (E. coli CCARM 1238; [4]) | MIC (E. coli CCARM 1238; [5])
12.5 µM: MIC [1, 5] | MIC [3, 5]
